Assay results: paper PMC4492759, “Pharmacological profiling of the hemodynamic effects of cannabinoid ligands: a combined in vitro and in vivo approach” (Pharmacology Research & Perspectives, 2015)
Where two headings read alike, the source gives them in different places.

Assays:
[1] = Blood concentration estimated from dose and blood volume; details: ACEA 3 mg kg−1; assuming total blood volume ∼20 mL in a 300 g rat
From the text: Therefore, in an attempt to determine whether GPR55 plays a role in the depressor response to ACEA we studied the hemodynamic responses in anesthetized WT and GPR55^−/− mice.

[2] = test system: anesthetized WT and GPR55−/− mice; test: Hemodynamic responses (MABP, HR) in anesthetized WT and GPR55−/− mice; assay type: in vivo, mouse
Procedure: (§1) All experiments performed under terminal anesthesia were carried out following approval by Robert Gordon University Animal Ethics Panel. Anesthesia was induced in male SD rats (200–300 g) by sodium pentobarbital [60 mg kg^−1 intraperitoneal (i.p.) injection]. Male/female WT and GPR55^−/− mice (25–35 g) were anesthetized with a mixture of ketamine (120 mg kg^−1) and xylazine (16 mg kg^−1) via i.p. injection. For both species the trachea was cannulated to allow artificial respiration with room air when required (54 strokes min^−1 and tidal volume 1.5 mL 100 g^−1 for rats; 120 strokes min^−1 and tidal volume 100 μL 10 g^−1 for mice) and the left carotid artery and right jugular vein were cannulated for the measurement of arterial BP (MLT844 Physiological Pressure Transducer; AD Instruments, Oxford, UK) and drug administration, respectively. Core temperature was monitored continuously and maintained at 37–38°C with the aid of a Vetcare heated pad (Harvard Apparatus Ltd., Boston, Massachusetts, USA). Anesthesia was monitored by foot pinch reflex and maintained throughout by administration of additional doses of anesthetic (rats: 3–4 mg kg^−1 of sodium pentobarbital salt i.v.; mice: 50 μL 25 g^−1of ketamine/xylazine i.p.) every 40 min, or as required. […] Heart rate (HR) was calculated from the ECG and recorded throughout the entire experimental period. After a stabilization period of approximately 15 min dose–response experiments were carried out as described below.
(§2) As a preliminary assessment of the effects of ACEA on arterial BP, a single bolus intravenous dose (3 mg kg^−1; selected from the literature as a dose known to produce a depressor response) was given to anesthetized rats. […] The time interval between drug administrations was 10–15 min to allow BP values to return to predrug values.

rat GPR55 = molecular target: T1, rat GPR55 (Rattus norvegicus, UniProt F1MAK4); test: [35S]-GTPγS binding, membranes of HEK293s cells transfected with rat GPR55; assay type: biochemical
T1 construct: expressed in transfected cells; host or cells: HEK293s, transient transfection; membranes prepared
T1 sequence (F1MAK4 1-319): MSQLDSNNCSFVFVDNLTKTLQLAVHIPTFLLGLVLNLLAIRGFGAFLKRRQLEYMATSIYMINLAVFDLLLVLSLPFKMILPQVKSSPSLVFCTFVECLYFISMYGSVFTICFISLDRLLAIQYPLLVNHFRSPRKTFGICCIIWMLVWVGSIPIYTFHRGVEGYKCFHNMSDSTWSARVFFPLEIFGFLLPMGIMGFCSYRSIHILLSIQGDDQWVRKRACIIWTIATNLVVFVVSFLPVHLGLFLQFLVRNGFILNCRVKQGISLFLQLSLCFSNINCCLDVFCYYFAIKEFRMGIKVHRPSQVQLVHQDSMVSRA
Procedure: (§3) HEK293s cells were transiently transfected with cDNA encoding rat or mouse CB1 or GPR55 and membranes were prepared as previously described (Ryberg et al. [2007]). In short, agonist activities in [^35S]-GTPγS binding assays were determined by the addition of ligand at 30°C for 45 min in membrane buffer [50 mmol/L NaCl, 5 mmol/L MgCl2, 0.5 mmol/L EDTA, 25 mmol/L HEPES (all Sigma, Gillingham, Dorset, UK); pH 7.4] containing 0.05 μg μL^−1 of membrane protein with 0.01% BSA, 25 μmol/L guanosine 5′-diphosphate (GDP), 100 μmol/L dithiothreitol (DTT), and 0.53 nmol/L [^35S]GTPγS (PerkinElmer) in a final volume of 200 μL. Antagonist assays were performed similarly, with the addition of an EC80 concentration of CP55940 as a nonselective CB1/CB2 agonist in conjunction with the ligand to be tested. Nonspecific binding was determined in the presence of 20 μmol/L unlabeled GTPγS. The reaction was terminated by addition of ice-cold wash buffer (50 mmol/L Tris-HCl, 5 mmol/L MgCl2, 50 mmol/L NaCl; pH 7.4) followed by rapid filtration under vacuum through 96-well B-glass fiber filter plates (PerkinElmer, Waltham, Massachusetts, USA) using a Biomek FX (Beckman Coulter, Bromma, Sweden). The filter plates were dried (30 min at 50°C) before scintillation liquid (PerkinElmer) was added onto the filters and the bound radioactivity was determined using a scintillation counter (Wallac). Data were fitted with a four-parameter logistic fit using the equation y = A + (B − A)/1 + ((C/x)^D), where A is no activation, B is full activation, C is the EC50, and D is the Hill slope. All data were based on at least three independent experiments.

rat CB1 = molecular target: T2, rat CB1 (Rattus norvegicus, UniProt P20272); test: [35S]-GTPγS binding, membranes of HEK293s cells transfected with rat CB1; assay type: biochemical; details: for EC50: mean ± SEM
T2 construct: expressed in transfected cells; host or cells: HEK293s, transient transfection; membranes prepared
Procedure: (§4) Antagonist assays were performed similarly, with the addition of an EC80 concentration of CP55940 as a nonselective CB1/CB2 agonist in conjunction with the ligand to be tested. Nonspecific binding was determined in the presence of 20 μmol/L unlabeled GTPγS. The reaction was terminated by addition of ice-cold wash buffer (50 mmol/L Tris-HCl, 5 mmol/L MgCl2, 50 mmol/L NaCl; pH 7.4) followed by rapid filtration under vacuum through 96-well B-glass fiber filter plates (PerkinElmer, Waltham, Massachusetts, USA) using a Biomek FX (Beckman Coulter, Bromma, Sweden). The filter plates were dried (30 min at 50°C) before scintillation liquid (PerkinElmer) was added onto the filters and the bound radioactivity was determined using a scintillation counter (Wallac). Data were fitted with a four-parameter logistic fit using the equation y = A + (B − A)/1 + ((C/x)^D), where A is no activation, B is full activation, C is the EC50, and D is the Hill slope. All data were based on at least three independent experiments.

[3] = test system: anesthetized Sprague–Dawley (SD) rats; test: Hemodynamic responses (MABP, HR) in anesthetized normotensive rats; assay type: in vivo, rat
Procedure: as §1, §2

mouse GPR55 = molecular target: T3, mouse GPR55 (Mus musculus, UniProt Q3UJF0); test: [35S]-GTPγS binding, membranes of HEK293s cells transfected with mouse GPR55; assay type: biochemical; details: mean ± SEM
T3 construct: expressed in transfected cells; host or cells: HEK293s, transient transfection; membranes prepared
Procedure: as §3

mouse CB1 = molecular target: T4, mouse CB1 (Mus musculus, UniProt P47746); test: [35S]-GTPγS binding, membranes of HEK293s cells transfected with mouse CB1; assay type: biochemical; details: mean ± SEM
T4 construct: expressed in transfected cells; host or cells: HEK293s, transient transfection; membranes prepared
Procedure: as §4

[4] = test system: conscious WT, CB1−/− and GPR55−/− mice; test: Blood pressure and heart rate responses in conscious mice (WT, CB1−/−, GPR55−/−); details: metoprolol (10 mg kg−1 i.v.); conscious GPR55−/− mice
[5] = agonist mode, at least three experiments, read-out: GPR55 EC50, Mouse
[6] = agonist mode, at least three experiments, read-out: CB1 EC50, Mouse
[7] = antagonist mode, vs EC80 concentration of CP55940, read-out: CB1 EC50, Mouse (ligand behaved as an antagonist)

T3 sequence (Q3UJF0 whole entry): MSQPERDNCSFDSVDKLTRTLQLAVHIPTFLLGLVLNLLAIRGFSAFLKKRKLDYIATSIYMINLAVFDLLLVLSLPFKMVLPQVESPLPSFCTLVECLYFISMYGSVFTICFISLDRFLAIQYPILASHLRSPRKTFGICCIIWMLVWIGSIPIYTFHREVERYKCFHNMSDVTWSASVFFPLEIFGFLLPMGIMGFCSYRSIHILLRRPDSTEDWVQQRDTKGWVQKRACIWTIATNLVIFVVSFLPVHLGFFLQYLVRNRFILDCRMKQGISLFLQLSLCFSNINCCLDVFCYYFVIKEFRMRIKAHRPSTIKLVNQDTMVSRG
T4 sequence (P47746 whole entry): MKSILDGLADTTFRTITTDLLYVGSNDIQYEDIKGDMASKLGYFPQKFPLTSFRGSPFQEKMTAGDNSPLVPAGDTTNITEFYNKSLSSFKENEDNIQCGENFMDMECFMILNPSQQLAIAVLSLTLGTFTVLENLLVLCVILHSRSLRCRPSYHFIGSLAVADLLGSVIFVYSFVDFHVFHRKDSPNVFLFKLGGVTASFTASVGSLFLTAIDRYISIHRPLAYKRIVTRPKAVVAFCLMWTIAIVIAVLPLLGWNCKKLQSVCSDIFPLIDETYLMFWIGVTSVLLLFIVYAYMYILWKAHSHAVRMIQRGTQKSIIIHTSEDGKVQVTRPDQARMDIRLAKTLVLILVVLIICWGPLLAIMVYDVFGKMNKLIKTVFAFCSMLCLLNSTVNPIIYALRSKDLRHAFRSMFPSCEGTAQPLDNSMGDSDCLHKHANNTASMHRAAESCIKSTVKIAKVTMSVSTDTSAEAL
T2 sequence (P20272 whole entry): as the sequence (P47746 whole entry) above, with D95E counted along it

## CCCCC/C=C\C/C=C\C/C=C\C/C=C\CCCC(=O)NCCCl [ACEA, arachidonyl-2′-chloroethylamide]
[1]
  expected total (not necessarily free) blood concentration: 100 to 120 nmol/L
[2]; ACEA 3 mg kg−1, WT and GPR55−/− mice
  effect on HR: nor was there any measurable effect
[2]; ACEA 3 mg kg−1, either WT or GPR55−/− mice
  depressor response distinguishable from vehicle: did not produce a depressor response
Rat GPR55; agonist mode, mean ± SEM, at least three experiments, read-out: GPR55 EC50, Rat
  EC50: 78 ± 4 nM
Rat CB1; GTPγS binding, both mouse and rat
  higher affinity for CB1 as compared to GPR55: approximately 10 fold
Rat CB1; agonist mode, at least three experiments, read-out: CB1 EC50, Rat
  EC50: 7 ± 1 nM
[3]; ACEA single bolus 3 mg kg−1 i.v.
  effect on HR: no effect
[3]; ACEA single bolus 3 mg kg−1 i.v., P < 0.001
  blood pressure (MABP) response: reproducible and pronounced depressor response
Mouse GPR55; [5]
  EC50: 62 ± 3 nM
Mouse CB1; [6]
  EC50: 3 ± 0.5 nM

## CCCCC/C=C\C/C=C\C/C=C\C/C=C\CCCC(=O)NCCO [AEA, anandamide]
Rat GPR55
  EC50: 24 ± 3 nM
Mouse GPR55; [5]
  EC50: 38 ± 3 nM

## Cc1c(C(=O)NN2CCCCC2)nn(-c2ccc(Cl)cc2Cl)c1-c1ccc(I)cc1 [AM251, 1-(2,4-dichlorophenyl)-5-(4-iodophenyl)-4-methyl-N-(piperidin-1-yl)-1H-pyrazole-3-carboxamide]
[2]; AM251 (1 and 3 mg kg−1) with CBD (50 μg kg−1), mice
  depressor response in the presence of CBD: augmented
Rat GPR55
  EC50: 74 ± 3 nM
Rat CB1; GTPγS binding, rat and mouse
  higher potency for CB1 (antagonist) than GPR55 (agonist): three to five
[3]; AM251 1 and 3 mg kg−1, ACEA 3 mg kg−1, dose-dependent, P < 0.01
  effect on magnitude and duration of the depressor response to ACEA: attenuated
Mouse GPR55; [5]
  EC50: 68 ± 3 nM
Mouse CB1; [7]
  EC50: 13 ± 2 nM

## Cc1c(C(=O)NN2CCOCC2)nn(-c2ccc(Cl)cc2Cl)c1-c1ccc(I)cc1 [AM281, 1-(2,4-dichlorophenyl)-5-(4-iodophenyl)-4-methyl-N-4-morpholinyl-1H-pyrazole-3-carboxamide]
Rat GPR55
  EC50: > 30000 nM
Rat CB1; antagonist mode, vs EC80 concentration of CP55940, read-out: CB1 EC50, Rat (ligand behaved as an antagonist)
  EC50: 13 ± 4 nM
Mouse GPR55; [5]
  EC50: > 30000 nM
Mouse CB1; [7]
  EC50: 8 ± 1 nM

## C=C(C)[C@@H]1CCC(C)=C[C@H]1c1c(O)cc(CCCCC)cc1O [CBD, cannabidiol]
[2]; CBD alone 50 μg kg−1, WT and GPR55−/− mice
  blood pressure response: depressor responses of a similar magnitude
Rat GPR55
  EC50: 624 ± 13 nM
[3]; CBD 50 μg kg−1, any experiments (rats and mice), data not shown
  effect on HR: unaffected
[3]; CBD alone 50 μg kg−1, ACEA 3 mg kg−1, P < 0.05
  reduction of AAC value of the depressor response to ACEA: approximately 50%
[3]; CBD alone 50 μg kg−1 single bolus, P < 0.05
  blood pressure response: small but measurable and statistically significant depressor response
Mouse GPR55; antagonist mode, vs EC80 concentration of CP55940, read-out: GPR55 EC50, Mouse (ligand behaved as an antagonist)
  EC50: 780 ± 8 nM
Mouse CB1; [6]
  EC50: > 30000 nM

## COCCc1ccc(OCC(O)CNC(C)C)cc1 (stereo not drawn) [metoprolol]
[4]
  effect on HR: profound and long-lasting bradycardia
